The values below come from patent US9815866B2, “Peptides that bind to epithelial cell adhesion molecule” (JAPANESE FOUNDATION FOR CANCER RESEARCH, priority 2012, dated 2017).

Bridge positions count the residues as written; N and C are the ends. Peptide text beside a SMILES is read from it.

For series [1], the target named is T1, EpCAM (Homo sapiens, UniProt P16422).
T1 sequence (P16422 24-314): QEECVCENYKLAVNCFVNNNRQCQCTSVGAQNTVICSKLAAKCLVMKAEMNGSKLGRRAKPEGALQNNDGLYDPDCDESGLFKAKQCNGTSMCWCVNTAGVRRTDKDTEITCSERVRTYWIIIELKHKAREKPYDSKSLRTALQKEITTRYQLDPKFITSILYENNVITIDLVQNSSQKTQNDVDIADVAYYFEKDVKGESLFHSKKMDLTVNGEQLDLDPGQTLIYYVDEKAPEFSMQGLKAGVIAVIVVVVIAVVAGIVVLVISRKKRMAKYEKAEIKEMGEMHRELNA
Briefly: Binding activity against EpCAM after oxidation treatment (S—S bond formation, HPLC fractionation).

Series [2] deals with T1, EpCAM. The note with it: peptide separated from the phage; earlier work (Patent Literature 2); cited from earlier work.
Series [3] has as its target T2, EpCAM (Homo sapiens, UniProt P16422).
T2 construct: with insertions myc and His tags at the C terminus of the extracellular domain; myc (C); made in house; host or cells: HEK-293T
T2 sequence (P16422 24-265 limits assumed): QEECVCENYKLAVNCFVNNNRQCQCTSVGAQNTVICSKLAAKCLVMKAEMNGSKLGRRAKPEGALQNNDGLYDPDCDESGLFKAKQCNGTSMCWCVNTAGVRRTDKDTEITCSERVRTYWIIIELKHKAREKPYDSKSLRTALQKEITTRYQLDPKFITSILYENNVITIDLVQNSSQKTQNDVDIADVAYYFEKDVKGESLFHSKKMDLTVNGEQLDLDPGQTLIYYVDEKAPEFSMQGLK
Briefly: Dissociation constant of EpCAM-binding peptide and EpCAM by fluorescence depolarization method. To be noted: immediately after chemical synthesis, no oxidation. The protocol:
The obtained EpCAM peptides were assayed for their strength of binding to EpCAM by the fluorescence depolarization method, which is a method for evaluating the interaction between molecules. Each fluorescently labeled EpCAM peptide and EpCAM are used to determine the strength of binding from the kinetics of depolarization by Brownian movement.
Each FITC-modified EpCAM peptide or control peptide was suspended at a concentration of approximately 100 μM in PBS. After centrifugation, the supernatant was collected and diluted 10-fold, and the absorbance was measured at 495 nm From the measurement value, the molar concentration of the peptide was determined using the formula of Beer-Lambert of the following expression 1: A=E×b×C [Expression 1]
EpCAM is diluted with PBS into several concentrations from 0 until reaching equilibrium (40 nM for the Ep133 peptide), and the FITC-modified peptide whose precise concentration has been measured by the aforementioned method is added to the dilutions thus prepared. The sample was left at a temperature for measurement for 30 minutes or longer and subjected to polarization measurement using a spectrofluorometer FP-6500 (JASCO Corp.) equipped with an automatic polarization measurement unit (JASCO Corp., APH-103). Kd was estimated by curve fitting according to the Hill equation.
The dissociation constants of the two types of peptides Ep133 (FIG. 2(A)) and Ep114 (FIG. 2(C)), which were obtained in the present invention and had the high ability to bind to EpCAM, were measured by the fluorescence depolarization method.
The dissociation constants of the EpCAM-binding peptide Ep301 (FIG. 2(D)) disclosed in Patent Literature 2 and Ep301 control (FIG. 2(E)), which was a control peptide derived from Ep301 by the substitution of cysteine at positions 5 and 10 by serine, and a sequence of EpCAM from residue 106 to 119 (FIG. 2(F)) having partial homology to EpCAM-binding peptides were measured similarly.

In another series the target is T3, HT-29-derived exosomes (Homo sapiens, UniProt P16422).
T3 construct: endogenous in cells; host or cells: exosomes from HT-29 cells
T3 sequence (P16422 24-314): T1 sequence (P16422 24-314)
Briefly: ELISA with immobilized biotinylated peptide and HT-29-derived exosomes. Type of series: binding. To be noted: increasing HT-29-derived exosomes. How it is done:
was immobilized onto an ELISA plate via streptavidin, and HT-29-derived exosomes were added thereto and reacted. After washing, bound exosomes were detected using the anti-EpCAM antibody. The biotin-modified peptide PE194 of the L3A variant was immobilized in the same way as above and used as a control.
For orientation: An ELISA detects its analyte on a solid surface through an enzyme-linked reagent.

A further series deals with T4, MCF-7 cells (Homo sapiens, UniProt P16422).
T4 construct: in MCF-7 cells known to express EpCAM; endogenous in cells; host or cells: MCF-7
T4 sequence (P16422 24-314): T1 sequence (P16422 24-314)
Briefly: Staining of EpCAM in MCF-7 cells. To be noted: data not shown. The format is cell-based. The protocol:
(§1) The HT-29 cells as EpCAM-expressing cells were cultured by spheroid culture method as follows: 4×10^5 cells are suspended in 3 ml of D-MEM/F-12 medium (Dulbecco's Modified n Eagle Medium:Nutrient Mixture 12, 1:1 mixture) (Gibco/Life Technologies Inc.) supplemented with 20 ng/ml human EGF (Miltenyi Biotec K.K.), 20 ng/ml human EGF-2 (Miltenyi Biotec K.K.), B-27 (Gibco/Life Technologies Inc.), penicillin, and streptomycin and inoculated to EZ-Sphere®, a Petri dish of 3.5 cm in diameter coated with MPC polymer. After static culture for 72 hours, the cells were collected while the medium was suspended by pipetting. The cells were stained with the FITC-modified peptide and observed under a fluorescence microscope. The staining was carried out by adding 4 μM peptide into a McCoy's 5A medium and standing still at room temperature for 30 minutes.
In addition to HT-29 cells, the staining of EpCAM using Ep114 was also confirmed by a similar method in MCF-7 cells known to express EpCAM (data not shown).

Series [4] concerns the target T5, EpCAM-expressing cells HT-29 (Homo sapiens, UniProt P16422).
T5 construct: EpCAM on HT-29 was stained at a concentration of 0.4 μM; endogenous in cells; host or cells: HT-29
T5 sequence (P16422 24-314): T1 sequence (P16422 24-314)
Briefly: Cell staining of HT-29 cells, confocal microscope. Type of series: cell-based. The note with it: HT-29, FITC-labeled peptide 0.4 μM, 37° C., 1 hour. How it is done: (§2) The EpCAM-expressing cells HT-29 or the non-expressing cells Hs578T were cultured in a medium containing 10% fetal calf serum in a Petri dish for 48 hours and then incubated at 37° C. for 1 hour with the FITC-labeled Ep114 peptide or a L3A control labeled peptide at a final concentration of 0.4 μM Immediately thereafter, the cells were observed under a confocal microscope.

For series [5], the system named is non-EpCAM-expressing cells Hs578T. Briefly: Cell staining of Hs578T cells, confocal microscope. The format is cell-based. To be noted: FITC-labeled peptide 0.4 μM, 37° C., 1 hour. The protocol: as §2
Series [6] concerns the target T6, 293T cells transfected with full-length EpCAM gene (Homo sapiens, UniProt P16422).
T6 construct: an expression plasmid in which the full-length EpCAM gene incorporated; expressed in transfected cells; host or cells: 293T
T6 sequence (P16422 24-314): T1 sequence (P16422 24-314)
Description: Staining of 293T cells forced to express EpCAM with FITC-modified peptide. The format is cell-based. The note with it: FITC-modified peptide with or without oxidation treatment. From the text:
293T cells expressing no endogenous EpCAM were transfected with pkk196, an expression plasmid in which the full-length EpCAM gene incorporated, and forced to express EpCAM, followed by staining using FITC-modified Ep114.

Series [7] in a line: S—S bond formation (autoxidation) of peptide by fluorescence depolarization method and HPLC. The format is physicochemical. From the text:
The S—S bond formation of Ep114 was studied in detail using the fluorescence depolarization method and HPLC.

In a further series the target is T7, EpCAM on HT-29 (Homo sapiens, UniProt P16422).
T7 sequence (P16422 24-314): T1 sequence (P16422 24-314)
Description: Staining of spheroid-cultured HT-29 cells with FITC-modified peptide. The format is cell-based. More on the design: endogenous in cells; host or cells: HT-29. To be noted: FITC-labeled peptide, 0.4 μM. How it is done: as §1, with “The staining was carried out by adding 4 μM peptide into a McCoy's 5A medium and standing still at room temperature for 30 minutes.” left out

`CC[C@H](C)[C@@H]1NC(=O)[C@@H](NC(=O)[C@H](CCC(N)=O)NC(=O)[C@H](CC(C)C)NC(=O)[C@H](CO)NC(=O)[C@@H](N)CCCCN)CSSC[C@@H](C(=O)N[C@@H](Cc2c[nH]c3ccccc23)C(=O)N2CCC[C@H]2C(=O)O)NC(=O)[C@H](CC(C)C)NC(=O)[C@H](CC(N)=O)NC(=O)[C@H](CC(N)=O)NC1=O` [Ep301, KSLQCINNLCWP, reference compound] (H-KSLQCINNLCWP-OH; disulfide 5-10; N-terminus and C-terminus assumed): the “binding activity against EpCAM” value at EpCAM [1] is “gain binding activity against EpCAM”. Besides, the “ability of the peptide to bind to EpCAM” value on EpCAM [2] is on record as “weak”.

In the case of `CC[C@H](C)[C@@H]1NC(=O)[C@H](CC(N)=O)NC(=O)[C@H](CCCNC(=N)N)NC(=O)[C@H](C(C)C)NC(=O)[C@@H](NC(=O)[C@H](CCC(N)=O)NC(=O)[C@H](CC(C)C)NC(=O)[C@H](Cc2c[nH]cn2)NC(=O)[C@@H](N)CCCCN)CSSC[C@@H](C(=O)N[C@@H](Cc2c[nH]c3ccccc23)C(=O)N[C@@H](CO)C(=O)O)NC1=O` [Ep114, KHLQCVRNICWS] (H-KHLQCVRNICWS-OH; disulfide 5-10; N-terminus and C-terminus assumed), the “binding activity against EpCAM” value on EpCAM [3] is “no binding activity against EpCAM”. In addition, at HT-29-derived exosomes, the ELISA signal result was “enhancement in ELISA signal was observed”. The “staining of EpCAM” value at MCF-7 cells is “confirmed”. In addition, the “staining of cell membrane portions” value in [4] was “staining of the cell membrane portions of the EpCAM-expressing cells HT-29 was observed”. In addition, the staining entry in series [5] is given as “no staining was observed”. Also, the “ability to stain EpCAM” value in series [6] is on record as “equivalent ability to stain EpCAM”. Moreover, the “S—S bond formation” value in series [7] (in PBS at 4° C. or frozen at −20° C., data not shown) was “oxidized after 10 days to form an S—S bond”. In addition, the oxidation entry in series [7] (in the presence of 10% FCS) is “rapidly oxidized”. The “staining of EpCAM on HT-29 spheroids” value on EpCAM on HT-29 is listed as “stained”.
